US20220088024A1, “METHODS FOR TREATING CANCER USING TOZADENANT” (Biotie Therapies, Inc., priority 2018, published 2022)
Where two headings read alike, the source gives them in different places.

Assay: Example 11: plasma pharmacokinetics (toxicokinetics) of tozadenant in mice after twice daily oral administration
Type: in vivo, Crl:CD1(ICR) mice
Settings: male, Crl:CD1(ICR), mouse, plasma, po
Procedure: The plasma pharmacokinetics and exposure levels of tozadendant have been documented in mice after oral administration, the same route of administration as tozadenant was dosed in the oncology efficacy studies.
The PK of tozadenant in mice was compared across a range of doses and dose frequencies. […]
Groups of mice of the Crl:CD1(ICR) strain were dosed, as follows:
The vehicle for the tozadenant in this mouse PK study was 1.6% (w/v) Avicel RC-591 (FMC), 0.2% (v/v) Tween 80, 0.18% (w/v) methylparaben and 0.02% (w/v) propylparaben in reverse osmosis water, pH 6.0±0.3. The 1.6% (w/v) Avicel RC-591 (FMC) was supplied by Biopolymer International, Brussels, Belgium. The 0.2% (v/v) Tween 80, 0.18% (w/v) methylparaben and 0.02% (w/v) propylparaben in reverse osmosis water, pH 6.0±0.3 was supplied by and Sigma-Aldrich Co Ltd, Poole, UK. This is the same formulation used for the mouse oncology model oral dosing.
The test article was administered orally by gavage, as follows:
Groups 1 to 4: Twice for one day (0 and 8 hours apart relative to initial dose)
Group 5: Twice for one day (0 and 12 hours apart relative to initial dose)
Blood samples for toxicokinetics (0.25 mL nominal) were taken from all toxicokinetic animals (subgroup 2), as follows:
For animals dosed at 0, 8 or 12 hour intervals, sampling time with respect to dose was symmetrical in each animal, for example, if an animal was sampled 0.5 hours after the first dose, it was sampled 0.5 hours after the second dose. The second sample obtained from each animal was collected under terminal anaesthesia.
Samples were taken from the orbital sinus (with the exception of Group 3 animals at the 10 hour bleed, which were taken by cardiac puncture) under isoflurane anaesthesia into K2EDTA. Samples were gently inverted to ensure mixing with anticoagulant, placed on a blood roller for at least one minute and then placed in a Kryorack until centrifugation.
Centrifugation was carried out at approximately 4-8° C. within one hour of collection. The resultant plasma from all samples was separated, transferred to uniquely labelled clear polypropylene tubes and frozen immediately at approximately <−10 to −30° C. Samples were analyzed at Covance.
Tozadenant was quantitated using protein precipitation followed by liquid chromatography mass spectrometry technique for quantification. This bioanalytical method was previously established and validated for tozadenant in mouse plasma.

COc1ccc(N2CCOCC2)c2sc(NC(=O)N3CCC(C)(O)CC3)nc12 [SYN-115, 4-hydroxy-4-methyl-piperidine-1-carboxylic acid (4-methoxy-7-morpholin-4-yl-benzothiazol-2-yl)-amide]
AUC (100 mg/kg/day, Group 1, Male, 100 mg/kg/day (50 mg/kg/dose), oral, dosing at 0, 8 hr, read-out: AUC8-24): 1570 ng·h/mL | Cmax (100 mg/kg/day, Group 1, Male, 100 mg/kg/day (50 mg/kg/dose), oral, dosing at 0, 8 hr, read-out: Cmax): 764 ng/mL | Tmax (100 mg/kg/day, Group 1, Male, 100 mg/kg/day (50 mg/kg/dose), oral, dosing at 0, 8 hr, read-out: Tmax): 9 h | Tmax (100 mg/kg/day, mice, 100 mg/kg/day (50 mg/kg/dose×2) oral, 1 hour after the second dose, read-out: Average Tmax): 9 h | Cmax (100 mg/kg/day, mice, 100 mg/kg/day (50 mg/kg/dose×2) oral, read-out: Average Cmax): 764 ng/mL | AUC(0-t) (100 mg/kg/day, mice, 100 mg/kg/day (50 mg/kg/dose×2) oral, read-out: Average daily AUC0-24): 3520 ng·h/mL | AUC(0-inf) (300 mg/kg/day, Group 2, Male, 300 mg/kg/day (150 mg/kg/dose), oral, dosing at 0, 8 hr): 9930 ng·h/mL | AUC(0-t) (300 mg/kg/day, Group 2, Male, 300 mg/kg/day (150 mg/kg/dose), oral, dosing at 0, 8 hr, read-out: AUC0-8): 5030 ng·h/mL | AUC(0-t) (300 mg/kg/day, Group 2, Male, 300 mg/kg/day (150 mg/kg/dose), oral, dosing at 0, 8 hr, read-out: AUC0-24): 9900 ng·h/mL | AUC (300 mg/kg/day, Group 2, Male, 300 mg/kg/day (150 mg/kg/dose), oral, dosing at 0, 8 hr, read-out: AUC8-24): 4870 ng·h/mL | Cmax (300 mg/kg/day, Group 2, Male, 300 mg/kg/day (150 mg/kg/dose), oral, dosing at 0, 8 hr, read-out: Cmax): 1720 ng/mL | Tmax (300 mg/kg/day, Group 2, Male, 300 mg/kg/day (150 mg/kg/dose), oral, dosing at 0, 8 hr, read-out: Tmax): 8.8 h | half-life (300 mg/kg/day, Group 2, Male, 300 mg/kg/day (150 mg/kg/dose), oral, dosing at 0, 8 hr, read-out: t1/2 (converted)): 0.971 h | AUC(0-t) (1000 mg/kg/day, Group 3, Male, 1000 mg/kg/day (500 mg/kg/dose), oral, dosing at 0, 8 hr, read-out: AUC0-8): 13800 ng·h/mL | AUC(0-t) (1000 mg/kg/day, Group 3, Male, 1000 mg/kg/day (500 mg/kg/dose), oral, dosing at 0, 8 hr, read-out: AUC0-24): 29900 ng·h/mL | AUC (1000 mg/kg/day, Group 3, Male, 1000 mg/kg/day (500 mg/kg/dose), oral, dosing at 0, 8 hr, read-out: AUC8-24): 16100 ng·h/mL | Cmax (1000 mg/kg/day, Group 3, Male, 1000 mg/kg/day (500 mg/kg/dose), oral, dosing at 0, 8 hr, read-out: Cmax): 3610 ng/mL | Tmax (1000 mg/kg/day, Group 3, Male, 1000 mg/kg/day (500 mg/kg/dose), oral, dosing at 0, 8 hr, read-out: Tmax): 10.2 h | Tmax (2000 mg/kg/day, 0, 8 hours dosing, all groups except females at 2000 mg/kg/day, read-out: Tmax (post dose, following the second dose)): 0.8 to 2.2 h | AUC(0-inf) (2000 mg/kg/day, Group 4, Male, 2000 mg/kg/day (1000 mg/kg/dose), oral, dosing at 0, 8 hr): 43100 ng·h/mL | AUC(0-t) (2000 mg/kg/day, Group 4, Male, 2000 mg/kg/day (1000 mg/kg/dose), oral, dosing at 0, 8 hr, read-out: AUC0-8): 20500 ng·h/mL | AUC(0-t) (2000 mg/kg/day, Group 4, Male, 2000 mg/kg/day (1000 mg/kg/dose), oral, dosing at 0, 8 hr, read-out: AUC0-24): 43000 ng·h/mL | AUC (2000 mg/kg/day, Group 4, Male, 2000 mg/kg/day (1000 mg/kg/dose), oral, dosing at 0, 8 hr, read-out: AUC8-24): 22500 ng·h/mL | Cmax (2000 mg/kg/day, Group 4, Male, 2000 mg/kg/day (1000 mg/kg/dose), oral, dosing at 0, 8 hr, read-out: Cmax): 5080 ng/mL | Tmax (2000 mg/kg/day, Group 4, Male, 2000 mg/kg/day (1000 mg/kg/dose), oral, dosing at 0, 8 hr, read-out: Tmax): 9 h | half-life (2000 mg/kg/day, Group 4, Male, 2000 mg/kg/day (1000 mg/kg/dose), oral, dosing at 0, 8 hr, read-out: t1/2 (converted)): 2.02 h | AUC(0-inf) (2000 mg/kg/day, Group 5, Male, 2000 mg/kg/day (1000 mg/kg/dose), oral, dosing at 0, 12 hr): 31300 ng·h/mL | AUC(0-t) (2000 mg/kg/day, Group 5, Male, 2000 mg/kg/day (1000 mg/kg/dose), oral, dosing at 0, 12 hr, read-out: AUC0-12): 17800 ng·h/mL | AUC(0-t) (2000 mg/kg/day, Group 5, Male, 2000 mg/kg/day (1000 mg/kg/dose), oral, dosing at 0, 12 hr, read-out: AUC0-24): 31100 ng·h/mL | AUC (2000 mg/kg/day, Group 5, Male, 2000 mg/kg/day (1000 mg/kg/dose), oral, dosing at 0, 12 hr, read-out: AUC12-24): 13300 ng·h/mL | Cmax (2000 mg/kg/day, Group 5, Male, 2000 mg/kg/day (1000 mg/kg/dose), oral, dosing at 0, 12 hr, read-out: Cmax): 6440 ng/mL | Tmax (2000 mg/kg/day, Group 5, Male, 2000 mg/kg/day (1000 mg/kg/dose), oral, dosing at 0, 12 hr, read-out: Tmax): 1.1 h | half-life (2000 mg/kg/day, Group 5, Male, 2000 mg/kg/day (1000 mg/kg/dose), oral, dosing at 0, 12 hr, read-out: t1/2 (converted)): 1.36 h | Tmax (2000 mg/kg/day, males, 0, 12 hour dosing, read-out: Tmax (following the first dose)): 1.1 h | half-life (mice, all dose levels where calculated, read-out: Half-lives): 1 to 2 h
